Experiments:
[1] = Aqueous solubility of salts (salt screen); assay type: physicochemical; details: target 10 mg/ml at 25° C., unbuffered
[2] = tested on: ovalbumin-sensitized mice; assay: Airway hyperresponsiveness (Penh) and BALF cell counts; assay type: in vivo, mouse
Protocol: Using the method of Hamelmann et al, (2S,3R)—N-2-((3-pyridinyl)methyl)-1-azabicyclo[2.2.2]oct-3-yl)-3,5-difluorobenzamide was evaluated for possible inhibition of airway hyper-responsiveness in mice. Briefly, ovalbumin (OVA)-sensitized animals, 12 animals per group, were challenged by nasal inhalation with aerosolized 5% OVA for 25 min on days 21, 23, and 25. The mice were treated with vehicle or (2S,3R)—N-2-((3-pyridinyl)methyl)-1-azabicyclo[2.2.2]oct-3-yl)-3,5-difluorobenzamide subcutaneously (s.c.) twice daily from day 21 to day 26 or once daily intratracheally (i.t.), preceding ovalbumin aerosol challenge by 30 min on days 21, 23 and 25 as well as methacholine challenge or bronchoalveolar lavage fluids (BALF) harvest on day 26. Dexamethasone, the reference standard, was administered at 3 mg/kg orally (p.o.) once daily 60 min before OVA challenge on day 21, 23 and 25 and 60 min before methacholine provocation or BALF harvest on day 26. Noninvasive measurements of airway responsiveness were performed by using whole body plethysmography, in which increases in enhanced pause (Penh) serve as an index of airway obstruction. Responses to inhaled methacholine were measured and calculated as percentage of respective baseline values. Unpaired Students t-test was used for comparison between the vehicle control and the sham group; one-way ANOVA and Dunnett's post-hoc analyses were applied for comparison between the vehicle control and treated groups. Statistical significance is considered at P<0.05.

db/db mouse = assay: Murine model of type 2 diabetes mellitus (db/db); assay type: in vivo; details: MLA 3 mg/kg daily via gavage with Compound A 1.0 mg/kg, obese mice
Excerpt: The db/db mouse, a well established model of type 2 diabetes mellitus, is a leptin-deficient mutant that expresses an obese phenotype and also commonly expresses metabolic symptoms including hyperglycemia, hyperlipidemia and hyperinsulinemia (Halaas et al., 1995 and Lee et al., 1996). This experimental animal model of diabetes was employed in a study designed to determine the effects of (2S,3R)—N-2-((3-pyridinyl)methyl)-1-azabicyclo[2.2.2]oct-3-yl)-3,5-difluorobenzamide on body mass and several additional metabolic parameters.
In this study, (2S,3R)—N-2-((3-pyridinyl)methyl)-1-azabicyclo[2.2.2]oct-3-yl)-3,5-difluorobenzamide was repeatedly administered orally (via gavage) at 1.0 mg/kg once daily starting from the age of approximately 3 weeks and continuing throughout the 7-week study. Nondiabetic heterozygote littermate mice (db/+; designated “Db”) were used as controls. Body weight and food intake were determined twice weekly. The α7 antagonist methyllycaconitine (MLA) was also given concurrently via gavage at 3 mg/kg daily to selected cohorts of db/db (designated “db”) or db/+mice. At the end of the 7-week dosing regimen, total growth rates (overall body weight gain) and average daily food intake were calculated. In addition, glucose levels were assessed in mice fasted overnight. Furthermore, blood sample analytes from mice fasted overnight were collected for measurements of tumor necrosis factor-a (TNF-α), triglycerides and glycosylated hemoglobin (HbA1c). All data are expressed as mean±SEM. For each parameter investigated, differences among all groups were compared by one-way ANOVA with post-hoc Neuman-Keuls multiple comparison test.

[3] = tested on: STZ rat model of diabetic neuropathy; assay: Streptozotocin (STZ)-induced diabetic neuropathy, Von Frey allodynia; assay type: in vivo; details: 150 mg/kg i.p., 2 hours before testing, all treatment days, vs pretreatment and vehicle, p<0.01
Excerpt: Peripheral neuropathy, a major complication of diabetes, often results in spontaneous pain or the perception of pain from contact with a normally non-noxious stimulus. Such neuropathic pain is experienced by 20-24% of diabetic patients, or approximately 30 million people worldwide (Schmader, 2002). The streptozotocin (STZ)-induced diabetes model in rats provides a means to evaluate the efficacy of test compounds that offer therapeutic potential for peripheral neuropathy and to understand their putative mechanism of action. In this model, a single injection of STZ, an antibiotic that mimics clinical diabetes by causing irreversible damage to the pancreatic β and α-cells leads to chronic hyperglycemia, nerve dysfunction and pain sensitivity. The current study utilizes the STZ rat model of diabetic neuropathy to investigate the effects of (2S,3R)—N-2-((3-pyridinyl)methyl)-1-azabicyclo[2.2.2]oct-3-yl)-3,5-difluorobenzamide on mechanical allodynia, an assessment of pain.
Diabetes was induced by a 0.5 ml injection of streptozotocin (60 mg/kg) dissolved in citrate buffer (pH) into the tail vein of each rat The development of diabetes was confirmed by measuring the blood glucose levels (BGL) of all animals on study day 3 (BGL>300 mg/dL). […] These animals were tested again for their BGL at study day 23.
(2S,3R)—N-2-((3-pyridinyl)methyl)-1-azabicyclo[2.2.2]oct-3-yl)-3,5-difluorobenzamide (0.1, 1 or 10 mg/kg p.o.) was administered as a solution of the hydrochloride salt in water once daily starting on study day 14 or study day 16 and continuing through study day 21 or 23, respectively. The control article gabapentin (in 0.9% saline, 150 mg/kg i.p.) was only administered on allodynia test days. Test item, vehicle or control article administration was based on evaluation of allodynia on study day 14. If allodynia was not present on study day 14, the animal was evaluated again at study day 16. Pain response was measured either on study days 14 and 21 or 16 and 23, 30 minutes after Test Item administration.
For the allodynia assessments, Von Frey filaments were used according to the methods of Chaplan and colleagues (1994). Briefly, the rats were placed in an enclosure and positioned on a metal mesh surface, but allowed to move freely. The rats' cabins were covered with red cellophane to diminish environmental distributions. The test began after cessation of exploratory behavior.
When the tip of a Von Frey fiber of given length and diameter was pressed against the skin at right angles, the force of application increases as long as the researcher continued to advance the probe until the fiber bent. After the fiber bent, the probe was advanced, causing the fiber to bend more, but without additional force being applied. The animal would indicate sensation by pulling back its paw. In the absence of a paw withdrawal response to the initially selected filament, a stronger stimulus was presented; in the event of paw withdrawal, the next weaker stimulus was chosen. In this fashion, the resulting pattern of positive and negative responses was used to determine the paw withdrawal threshold.
The set of Von Frey monofilaments provide an approximate logarithmic scale of actual force and a linear scale of perceived intensity. Below is a table showing the force (g) and its corresponding size of monofilaments.
All normally distributed data are presented as means±SEM, as well as the animals' individual values followed by a student T-test (Software: Microsoft® Excel). A p value <0.05 is considered to represent a significant difference. Due to the non-normal distribution of the allodynia data, descriptions of those data are provided as both mean (±SEM) and median values in order to represent their imprecise nature and skewed distribution.

CD-1 mice = assay: Formalin test; assay type: in vivo, mouse; details: 5 mg/kg s.c., positive control
Protocol: One of the most clinically predictive screening models of acute pain is the formalin test in mice (LeBars et al., 2001). In this paradigm, originally described by Dubuisson and Dennis (1977), a diluted solution of formalin is injected into the plantar surface of a subject's (rat or mouse) rear paw and nociceptive behavior is measured; for instance, licking and biting of the injected paw. Two phases of the response are observed. First an early phase, starting immediately after injection and lasting 5-10 minutes, followed by a late phase that can last from 15-60 minutes after injection. Nociceptive response is attributed to direct chemical stimulation in the early phase and inflammation/persistent pain in the later phase (Dubuisson and Dennis, 1977). The response in the late phase also depends on changes in processing of information in the spinal cord due to the afferent barrage during the early phase (Coderre et al., 1990). An advantage of the test is that two different types of stimuli are employed in the same assay to study the possibility of varying analgesic effects of a drug in the two phases of the test (Tjølsen and Hole, 1997).
Subjects (adult male CD-1 mice (Charles River, Raleigh, N.C.) weighing approximately 20-25 grams) were removed from their home cage and weighed, then placed in a clear Plexiglas™ observation box for an acclimation period of 20-30 minutes. Mice were then removed from the observation chambers and (2S,3R)—N-2-((3-pyridinyl)methyl)-1-azabicyclo[2.2.2]oct-3-yl)-3,5-difluorobenzamide (as the hydrochloride salt in 0.9% saline) (1, 3 or 10 mg/kg s.c. (calculated with respect to the free base)), morphine (5 mg/kg; s.c.) or 0.9% saline vehicle was administered subcutaneously in a volume of 1 mL/kg. Mice were then returned to the chamber for the predetermined pretreatment time of 30 minutes for (2S,3R)—N-2-((3-pyridinyl)methyl)-1-azabicyclo[2.2.2]oct-3-yl)-3,5-difluorobenzamide and morphine.
After the test compound pretreatment time, the animals were injected with formalin solution (2.5% derived as a 1:4 dilution of 10% phosphate buffered formalin solution (Sigma):distilled water). The subject's assigned paw was gasped gently and formalin solution was injected into the paw intra-dermally in the middle on the dorsal side. Once injected, the subject was immediately returned to its observation chamber and a timer was started to mark the beginning of Phase I. Each subject was videotaped for the entire 40-minute session. […] The time spent licking during that 1 min interval was recorded, and the presence or absence of paw favoring was noted.
For data analyses, phase I of the test was defined as 0 to 5 minutes after formalin injection, and phase II was defined as 20 to 40 minutes after formalin injection. The time spent licking during the 1 minute intervals during those time frames was recorded and graphed as mean±S.E.M. For comparisons across treatment groups, 1-way analyses of variance (ANOVAs) were performed for each phase of the session with treatment as the […] variable. Post-hoc analyses were performed when appropriate to determine specific group differences.

Sprague-Dawley rats = assay: Complete Freund's adjuvant (CFA)-induced thermal hyperalgesia; assay type: in vivo, rat; details: 3 mg/kg s.c., 1 hour after dosing, reference standard
Protocol: Injection of complete Freund's adjuvant (CFA) in rats is commonly used to evaluate compounds with potential for use as drugs in treatment of mono-arthritis (osteo-arthritis) and other inflammatory conditions. Signs of hyperalgesia develop within 24 h (Schaible and Grubb, 1993).
(2S,3R)—N-2-((3-pyridinyl)methyl)-1-azabicyclo[2.2.2]oct-3-yl)-3,5-difluorobenzamide was evaluated for possible analgesia effect in the CFA-induced thermal hyperalgesia test in rats using methods similar to those described by Walker and colleagues (2003). Briefly, adult male Sprague-Dawley rats (BioLasco, Taiwan) weighing 180±20 g on receipt were randomly assigned to treatment groups of n=8 per group. Animals each received a sub plantar injection (0.1 mL) of CFA (DIFCO, 264010; 0.1% solution) to the right hind paw at 24 h prior to experimental testing. Thermal hyperalgesia was tested using a Paw/Tail stimulator analgesia meter (IITC Model-336G, IITC, USA) with a thermally regulated glass floor set at 30° C. […] The time required for the animal to withdraw the paw from the thermal stimulus was automatically recorded. […]
Twenty-four hours after CFA injection, subjects were pre-selected (for clear presence of thermal hyperalgesia) for experimentation only if the latency to withdrawal was less than 75% of the baseline. […] The post-treatment level of thermal hyperalgesia was then measured at 60 minutes post-treatment. […]

For `O=C(N[C@@H]1C2CCN(CC2)[C@H]1Cc1cccnc1)c1cc(F)cc(F)c1.O=C(N[C@@H]1C2CCN(CC2)[C@H]1Cc1cccnc1)c1cc(F)cc(F)c1.O=C(O)c1ccc(O)cc1` [4-Hydroxybenzoate mono salt], the “Aqueous Solubility” value [1] was over 10000 µg/mL.
In the case of `C[C@@H]1C[C@H]2[C@@H]3CCC4=CC(=O)C=C[C@]4(C)[C@@]3(F)[C@@H](O)C[C@]2(C)[C@@]1(O)C(=O)CO` [Dexamethasone, reference compound], the “methacholine (10 and 30 mg/mL)-induced increase in Penh values” ([2]; 3 mg/kg PO once daily, reference standard) is reported as “significant inhibition” and the “increase in total WBC, neutrophils, lymphocytes, monocytes and eosinophils in BALF” value ([2]; 3 mg/kg p.o. once daily) is reported as “inhibited significantly”.
With `O=C(N[C@@H]1C2CCN(CC2)[C@H]1Cc1cccnc1)c1cc(F)cc(F)c1.O=C(O)/C=C/C(=O)O` [Fumarate mono salt] the “Aqueous Solubility” value [1] was over 10000 µg/mL.
With `Cl.O=C(N[C@@H]1C2CCN(CC2)[C@H]1Cc1cccnc1)c1cc(F)cc(F)c1` [Hydrochloride mono salts] the “Aqueous Solubility” value [1] was over 10000 µg/mL.
With `CCN1C[C@]2(COC(=O)c3ccccc3N3C(=O)C[C@H](C)C3=O)CC[C@H](OC)[C@@]34[C@@H]5C[C@H]6[C@H](OC)[C@@H]5[C@](O)(C[C@@H]6OC)[C@@](O)([C@@H](OC)[C@H]23)[C@@H]14` [MLA, methyllycaconitine, reference compound] the “effect of MLA co-administration on the inhibition of fasting plasma glucose” value (db/db mouse) was “not reversed”, the “effect of MLA co-administration on the reduced food consumption” value (db/db mouse) was “failed to show the reduced daily average food consumption” and the “effect of MLA co-administration on the reduced weight gain” value (db/db mouse) was “failed to show the reduced weight gain”. The “effect of MLA co-administration on the reduction in glycosylated HbA1c” value (db/db mouse) was “attenuated”, the “effect of MLA co-administration on the reduction in triglycerides” value (db/db mouse) was “not attenuated” and the “effect of MLA co-administration on the reduction of TNF alpha” value (db/db mouse) was “inhibited”.
With `O=C(N[C@@H]1C2CCN(CC2)[C@H]1Cc1cccnc1)c1cc(F)cc(F)c1.O=P(O)(O)O` [Phosphate mono salts] the “Aqueous Solubility” value [1] was over 10000 µg/mL.
In the case of `NCC1(CC(=O)O)CCCCC1` [gabapentin, reference compound], the tactile allodynia [3] is reported as “reversed the tactile allodynia significantly”.
For `CN1CC[C@]23c4c5ccc(O)c4O[C@H]2[C@@H](O)C=C[C@H]3[C@H]1C5` [morphine, reference compound], the “efficacy, phase I” value (CD-1 mice) was “efficacious”, the “efficacy, phase II” value (CD-1 mice) was “efficacious” and the “analgesic effect on CFA-induced thermal hyperalgesia” value (Sprague-Dawley rats) was “significant analgesic activity”.
